Measured values: US10654843B2, “LMP7 inhibitors” (PRINCIPIA BIOPHARMA INC., priority 2014, dated 2020)
Read-outs that look alike come from different tables or passages of the source.

Legend:
[1] = target: constitutive proteasome (B5c) (Homo sapiens, UniProt P20618+P28074); assay: Caliper-based proteasome assay, constitutive proteasome chymotrypsin-like activity; assay type: biochemical; settings: human recombinant constitutive proteasome 0.3 nM, FAM-labeled peptide substrate 1 μM, room temperature 3 h
Protocol: (§1) A Caliper-based proteasome assay (Caliper Life Sciences, Hopkinton, Mass.) was used to measure inhibition of the chymotrypsin-like activity of both immunoproteasome (LMP7/B5i) and the constitutive proteasome (B5c) for a compound of Formula (I). Serial dilutions of test compounds were incubated with either human recombinant immunoproteasome or constitutive proteasome (0.3 nM enzyme) and a carboxyfluorescein (FAM)-labeled peptide substrate FAM-TYETFKSIMKKSPF-NH2 (1 μM) at room temperature for 3 h. The reaction buffer was 20 mM Hepes pH 7.4, 0.01% bovine serum albumin, 0.015% SDS, 0.5 mM EDTA, 1% DMSO. The reaction was then terminated with a buffer containing the known proteasome inhibitor carfilzomib at a concentration of 5 uM. The peptide cleavage reaction product was quantified on a Caliper LabChip 3000. Percent inhibition was calculated for each compound dilution and the concentration that produced 50% inhibition was calculated. This value is presented as the IC50.

[2] = target: T1, proteasome activity in primary human peripheral blood mononuclear cells (PBMC) (Homo sapiens, UniProt P28062); assay: Inhibition of proteasome activity in cells (Proteasome-Glo), PBMC; assay type: cell-based; settings: 2 hr incubation, Suc-LLVY-aminoluciferin
T1 construct: endogenous in cells; host or cells: primary human PBMC
Protocol: (§2) The cell-based effects of the compound of the present disclosure on immunoproteasome were determined by measuring inhibition of proteasome activity in cells using the Proteasome-Glo™ Cell-Based Reagent (Promega, Madison Wis). The Proteasome-Glo™ assay contains a specific luminogenic proteasome substrate in a buffer optimized for cell permeabilization, proteasome activity, and luciferase activity. For the chymotrypsin-like activity, the peptide substrate is Suc-LLVY-aminoluciferin (Succinyl-leucine-leucine-valine-tyrosine-aminoluciferin). Cleavage of the substrate by proteasome results in luminescent signal which is proportional to the proteasome activity. The cell line THP-1 (a monocytic leukemia cell line enriched in immunoproteasome), the cell line HT-29 (a colorectal adenocarcinoma cell line enriched in constitutive proteasome), and primary human peripheral blood mononuclear cells (PBMC) were used to assess proteasome activity. Cells were seeded in a 96-well plate at 10,000 cells per well in RPMI 1640 high glucose medium with 10% fetal bovine serum (FBS). Compound dilutions were added to cells starting at a concentration of 5 uM and decreasing in tripling dilutions. The final DMSO concentration was 1%. The concentration range was adjusted as needed for compounds of different potencies. The cells treated with compounds were incubated for 2 hr at 37° C. in 5% CO2. At the end of the 2 hour incubation period, cells were transferred to white 384 well assay plates. 20 uL of Proteasome-Glo™ Reagent was added to each well and incubated for 10 minutes at room temperature. The plate was read in the Analyst HT instrument (Molecular Devices, Sunnyvale, Calif.) using luminescence mode. The percent inhibition of activity was plotted as a function of log compound concentration. The IC50 was then calculated for each compound using Prism software from GraphPad Software Inc. (San Diego, Calif).

[3] = target: immunoproteasome (LMP7/B5i) (Homo sapiens, UniProt P20618+P28062); assay: Caliper-based proteasome assay, immunoproteasome chymotrypsin-like activity; assay type: biochemical; settings: human recombinant immunoproteasome 0.3 nM, FAM-labeled peptide substrate 1 μM, room temperature 3 h
Protocol: as §1

[4] = target: T2, proteasome activity in HT-29 cells (Homo sapiens, UniProt P28074); assay: Durability of binding in cells, wash-out assay (Proteasome-Glo), HT-29; assay type: cell-based; settings: 2 hours incubation, washout
T2 construct: endogenous in cells; host or cells: HT-29
Protocol: The durability of binding of proteasome inhibitors was assessed in cells using wash-out assays and the Proteasome-Glo™ Reagent kit. THP-1 cells, HT-29 cells, or PBMC were incubated with an 8-fold dilution series of inhibitor for 2 hours. Following 2 hours of incubation, cells were washed using 3 occasions of centrifugation followed by resuspension in culture medium. Following inhibitor washout, cells were returned to culture for either 30 minutes, 4 hours, or 18 hours. Cells were then transferred to white 384 plates, and 20 uL of Proteasome-Glo™ Reagent was added to each well for 10 minutes. Plates were then read on an Analyst HT plate reader using luminescence mode. The percent inhibition of activity was plotted as a function of log compound concentration. The IC50 was then calculated for each compound using Prism software from GraphPad.

[5] = target: immunoproteasome (LMP7) (Homo sapiens, UniProt P20618+P28062); assay: Recovery of enzymatic activity upon dialysis; assay type: biochemical; settings: FIG. 1, dialysis
Description: The dialysis assay was done to determine if a compound binds reversibly or irreversibly to immunoproteasome thereby resulting in reversible or irreversible inhibition of proteaseome activity. […] Partial or complete recovery of proteasome activity over extended periods of time during dialysis is indicative of slow off-rate kinetics due to formation of a reversible covalent bond. For rapidly reversible compounds complete recovery of proteosome activity upon dialysis is expected to be observed.
A solution containing immunoproteasome was incubated with a compound of the disclosure (test compound) or (S)-4-methyl-N—((S)-1-(((S)-4-methyl-1-((R)-2-methyloxiran-2-yl)-1-oxopentan-2-yl)amino)-1-oxo-3-phenylpropan-2-yl)-2-((S)-2-(2-morpholino-acetamido)-4-phenylbutanamido)-pentanamide (reference compound), an irreversible covalent inhibitor of the immunoproteosome which targets the catalytic threonine of the immunoproreasome subunits (see Kuhn, D. J., et al. 2007. Potent activity of carfilzomib, a novel, irreversible inhibitor of the ubiquitin-proteasome pathway, against preclinical models of multiple myeloma. Blood, 110(9), 3281-3290). […] Following dialysis, enzymatic activity was measured using the Caliper-based proteasome activity assay (Caliper Life Sciences, Hopkinton, Mass). […]

[6] = target: T3, proteasome activity in HT-29 cells (enriched in constitutive proteasome) (Homo sapiens, UniProt P28074); assay: Inhibition of proteasome activity in cells (Proteasome-Glo), HT-29; assay type: cell-based; settings: 2 hr incubation, Suc-LLVY-aminoluciferin, read-out: HT29 IC50
T3 construct: endogenous in cells; host or cells: HT-29
Protocol: as §2

[7] = system: multiple myeloma cell lines and primary patient tumor cells; settings: including those resistant to conventional and novel prior therapies; cited from earlier work
[8] = system: mouse Th1/17 differentiation; settings: cited from earlier work
[9] = system: proinflammatory cytokines (IL-6, TNF-α, IL-23); settings: cited from earlier work
[10] = system: murine DSS-induced colitis model; settings: cited from earlier work
[11] = system: B cell effector functions; settings: cited from earlier work
[12] = system: human Th1/17 differentiation; settings: cited from earlier work
[13] = system: murine collagen-induced arthritis; settings: including inflammation and bone erosion; cited from earlier work
[14] = system: MRL/lpr lupus model; settings: cited from earlier work
[15] = system: Hashimoto's thyroiditis model; settings: autoantibody-driven model; cited from earlier work

## Cc1ccc(CNC(=O)[C@H](COc2cccc(C=C(C#N)C(=O)NC(C)(C)C)c2)NC(=O)[C@@H](NC(=O)c2cc(C)on2)[C@@H](C)O)cc1 [Example 3]
[1]
  IC50: 1030 nM
[2]
  IC50: 3 nM
[3]
  IC50: 27 nM
[4]; 30 minutes in culture, read-out: HT29 (30 min) IC50
  IC50: > 5000 nM
[4]; 4 hours in culture, read-out: HT29 (4 h) IC50
  IC50: > 5000 nM
[5]
  binding to the immunoproteosome: reversible
[6]
  IC50: 1370 nM

## CC1=C(C(=O)N[C@H](C)C(=O)N[C@@H](Cc2c[nH]c3ccccc23)C(=O)N[C@@H](Cc2ccccc2)C(=O)[C@@]2(C)CO2)Cc2ccccc21 [PR-924]
[7]
  growth of multiple myeloma cell lines and primary patient tumor cells: inhibit growth

## COc1ccc(C[C@H](NC(=O)[C@H](C)NC(=O)CN2CCOCC2)C(=O)N[C@@H](Cc2ccccc2)C(=O)[C@@]2(C)CO2)cc1 [PR-957]
[8]
  mouse Th1/17 differentiation: potently block
[9]
  production of proinflammatory cytokines (IL-6, TNF-α, IL-23): potently block
[10]
  inflammation and tissue destruction: reduced inflammation and tissue destruction
[11]
  B cell effector functions: potently block
[12]
  human Th1/17 differentiation: potently block
[13]
  disease activity in murine collagen-induced arthritis: significantly inhibit disease activity
[14]
  anti-dsDNA IgG levels: reduced
  disease progression: prevented disease progression
  plasma cell numbers: reduced
[15]
  efficacy in Hashimoto's thyroiditis model: efficacious
